Experimental data from patent US20250032454A1, “KDM1A INHIBITORS FOR THE TREATMENT OF DISEASE” (Imago Biosciences, Inc., priority 2021, published 2025).
pIC50: −log10 of the molar value. Where two headings read alike, the source gives them in different places.

Experiments:
LSD1 = LSD1 (Homo sapiens, UniProt O60341); experiment: LSD1 fluorescence coupling enzyme assay (HRP/Amplex Red, H3(1-21)K4me2 peptide), 10-dose IC50; format: biochemical; settings: 10 μM histone H3(1-21)K4me2 peptide substrate, 3-fold serial dilution from 100 μM
Source text: Assaying the inhibition of KDM1A can be determined in vitro, in cultured cells, and in animals. There are a variety of spectrophotometric methods to detect the results of demethylation of methylated lysines, viz., detecting the products of KDM1A demethylase oxidative activity on a peptide fragment of at least 18 amino acids representing the N-terminus of the histone H3 substrate that contains a monomethyl at the fourth lysine residue. Hydrogen peroxide, one product of the KDM1A demethylase reaction, reacts with horseradish peroxidase and dihydroxyphenoxazine (ADHP) to produce the fluorescent compound resorufin (excitation=530-560 nm: emission=590 nm). The KDM1A demethylase enzyme activity can be obtained from mammalian cells or tissues expressing KDM1A from an endogenous or recombinant gene and purified or assayed from a whole cell extract. These methods can be used to determine the concentration of the disclosed compounds can inhibit fifty percent of the enzyme activity (IC50).
Alternatively, the production of H2O2 during the KDM1A reaction can be detected fluometrically. In this system, the production of H2O2 is detected in the HDM assay buffer after exposure to substrate, co-factor and enzyme using ADHP (10-Acetyl-3, 7-dihydroxyphenoxazine) as a fluorogenic substrate for horse radish peroxidase (HRP). […] The florescent product is resorufin. Sensitivity can be as low as 10-15 M of target protein. The signal is read using a fluorescence microplate reader at excitation and emission wavelengths of 530-560 nm and 590 nm, respectively.
Compounds were tested in a 10-dose IC50 mode fluorescence coupling enzyme assay with 3-fold serial dilution in duplicate starting at 100 μM. The production of FAD-dependent H2O2 as a result of demethylase activity of LSD1 on 10 μM histone H3(1-21)K4me2 peptide substrate was measured by coupling with HRP and Amplex Red to yield resorufin (fluorescence measured at Ex/Em=535/590 nm on EnVision, Perkin Elmer).

MV4;11 cells = experiment: Cell Titer-Glo cell growth inhibition in MV4;11 cell line (Day 5 / Day 10); format: cell-based
Procedure: Cell growth inhibition against MV4;11 cells was confirmed for the synthetic compounds. The Cell Titer-Glo Luminescent Cell Viability Assay (Promega, USA) was used to determine the number of viable cells in culture based on quantitation of the ATP present, which signals the presence of metabolically active cells. This assay was run in a 96-well plate format arrayed in a 10-point dose curve, ranging from 0 to 50 µM with 4-fold dilutions for each compound. Cells are seeded on Day 0 at 3750 cells per well. At Day 5, a portion of each well is assayed for viability according to the Cell Titer-Glo protocol. Briefly, cells/plates were centrifuged at 1100×g for 5 minutes. 100 μL of media was removed from each well and replaced with 100 μL of CellTiter-Glo. The plates were shaken at room temperature for 10 minutes and measured on a luminescence plate reader. Another portion of each well from the Day 5 plate is used to seed a new 96 plate containing fresh compound and media set up in the equivalent 10-point dose curve array in order to continue the cell growth inhibition assay for another 5 days. A final timepoint is collected at Day 10 using the Cell Titer-Glo protocol. Luminescence was detected on an En Vision® Multilabel Plate Reader (Perkin Elmer, Waltham, Mass.) and IC50 determination was made using Graph Pad Prism software.

[1] = Homo sapiens, MV4-11, 120 h, Day 5, read-out: Cell Titer-Glo IC50 (5 d)
[2] = Homo sapiens, MV4-11, 240 h, Day 10, read-out: Cell Titer-Glo IC50 (10 d)
[3] = Day 5, read-out: Cell Titer-Glo IC50 (5 d)

N#Cc1ccc(-c2cc(NC[C@@H]3CCCNCC3)nn2-c2ccc(C(=O)N3CCCC3)cc2)cc1F (single isomer, unassigned) [Example 25a]
pIC50 (LSD1): > 6.30
pIC50 (MV4;11 cells; [1]): > 6.30
pIC50 (MV4;11 cells; [2]): > 6.30

Cn1cc2cc(-n3nc(NC[C@H]4CCCNC4)cc3-c3ccc(C#N)c(F)c3)ccc2n1 (single isomer, unassigned) [Example 9b]
pIC50 (LSD1): > 6.30
pIC50 (MV4;11 cells; [1]): > 6.30

N#Cc1ccc(-c2cc(NC[C@@H]3CCC[C@@H](N)C3)nn2-c2ccc3nn(CCO)cc3c2)cc1F [Example 70, 4-(3-((((1R,3R)-3-aminocyclohexyl)methyl)amino)-1-(2-(2-hydroxyethyl)-2H-indazol-5-yl)-1H-pyrazol-5-yl)-2-fluorobenzonitrile]
pIC50 (LSD1): > 6.30
pIC50 (MV4;11 cells; [1]): 5.00 to 6.00
pIC50 (MV4;11 cells; [2]): > 6.30

N#Cc1ccc(-c2cc(NC[C@H]3CCC[C@H](N)C3)nn2-c2ccc(-n3ccnn3)cc2)cc1F [Example 61, 4-(1-(4-(1H-1,2,3-triazol-1-yl)phenyl)-3-((((1S,3S)-3-aminocyclohexyl)methyl)amino)-1H-pyrazol-5-yl)-2-fluorobenzonitrile]
pIC50 (LSD1): > 6.30
pIC50 (MV4;11 cells; [1]): > 6.30
pIC50 (MV4;11 cells; [2]): > 6.30

N#Cc1ccc(-c2cc(NC[C@H]3CCC[C@H](N)C3)nn2-c2ccc(N3CCN(CCO)CC3)cc2)cc1F [Example 46, 4-(3-((((1S,3S)-3-aminocyclohexyl)methyl)amino)-1-(4-(4-(2-hydroxyethyl)piperazin-1-yl)phenyl)-1H-pyrazol-5-yl)-2-fluorobenzonitrile]
pIC50 (LSD1): > 6.30
pIC50 (MV4;11 cells; [1]): > 6.30
pIC50 (MV4;11 cells; [2]): > 6.30

Cn1ncc2cc(-n3nc(NCC4CCCC(N)C4)cc3-c3ccc(C#N)c(F)c3)ccc21 (racemic) [Example 7, rac-4-(3-(((3-aminocyclohexyl)methyl)amino)-1-(1-methyl-1H-indazol-5-yl)-1H-pyrazol-5-yl)-2-fluorobenzonitrile]
pIC50 (LSD1): > 6.30
pIC50 (MV4;11 cells; [1]): > 6.30

CS(=O)(=O)n1cc(-c2ccc(-n3nc(NC[C@H]4CCC[C@H](N)C4)cc3-c3ccc(C#N)c(F)c3)cc2)cn1 [Example 59, 4-(3-((((1S,3S)-3-aminocyclohexyl)methyl)amino)-1-(4-(1-(methylsulfonyl)-1H-pyrazol-4-yl)phenyl)-1H-pyrazol-5-yl)-2-fluorobenzonitrile]
pIC50 (LSD1): > 6.30
pIC50 (MV4;11 cells; [1]): 5.00 to 6.00
pIC50 (MV4;11 cells; [2]): > 6.30

N#Cc1ccc(-c2cc(NC[C@@H]3CCC[C@@H](N)C3)nn2-c2ccc3c(cnn3CCO)c2)cc1F [Example 71, 4-(3-((((1R,3R)-3-aminocyclohexyl)methyl)amino)-1-(1-(2-hydroxyethyl)-1H-indazol-5-yl)-1H-pyrazol-5-yl)-2-fluorobenzonitrile]
pIC50 (LSD1): > 6.30
pIC50 (MV4;11 cells; [1]): > 6.30
pIC50 (MV4;11 cells; [2]): > 6.30

Cn1ncc2cc(-n3nc(NCC45CCN(CC4)CC5)cc3-c3ccc(C#N)c(F)c3)ccc21 [Example 23, 2-fluoro-4-(1-(1-methyl-1H-indazol-5-yl)-3-((quinuclidin-4-ylmethyl)amino)-1H-pyrazol-5-yl)benzonitrile]
pIC50 (LSD1): > 6.30
pIC50 (MV4;11 cells; Homo sapiens, 120 h, Day 5, read-out: Cell Titer-Glo IC50 (5 d)): > 6.30
pIC50 (MV4;11 cells; Homo sapiens, 240 h, Day 10, read-out: Cell Titer-Glo IC50 (10 d)): > 6.30

Cn1ncc2cc(-n3nc(NC[C@@H]4CCC[C@H](N)C4)cc3-c3ccc(C#N)c(F)c3)ccc21 (single isomer, unassigned) [Example 7b]
pIC50 (LSD1): > 6.30
pIC50 (MV4;11 cells; [1]): 6.00 to 6.30

N#Cc1ccc(-c2cc(NC[C@H]3CCC[C@H](N)C3)nn2-c2ccc(-c3cn[nH]c3)cc2)cc1F [Example 52, 4-(1-(4-(1H-pyrazol-4-yl)phenyl)-3-((((1S,3S)-3-aminocyclohexyl)methyl)amino)-1H-pyrazol-5-yl)-2-fluorobenzonitrile]
pIC50 (LSD1): > 6.30
pIC50 (MV4;11 cells; [1]): > 6.30
pIC50 (MV4;11 cells; [2]): > 6.30

Cn1cc(-c2cccc(-n3nc(NC[C@H]4CCC[C@H](N)C4)cc3-c3ccc(C#N)c(F)c3)c2)cn1 [Example 55, 4-(3-((((1S,3S)-3-aminocyclohexyl)methyl)amino)-1-(3-(1-methyl-1H-pyrazol-4-yl)phenyl)-1H-pyrazol-5-yl)-2-fluorobenzonitrile]
pIC50 (LSD1): > 6.30
pIC50 (MV4;11 cells; [1]): 6.00 to 6.30
pIC50 (MV4;11 cells; [2]): > 6.30

CC(C)n1cc2cc(-n3nc(NC[C@@H]4CCC[C@@H](N)C4)cc3-c3ccc(C#N)c(F)c3)ccc2n1 [Example 72, 4-(3-((((1R,3R)-3-aminocyclohexyl)methyl)amino)-1-(2-isopropyl-2H-indazol-5-yl)-1H-pyrazol-5-yl)-2-fluorobenzonitrile]
pIC50 (LSD1): 5.00 to 6.00
pIC50 (MV4;11 cells; [1]): 6.00 to 6.30
pIC50 (MV4;11 cells; [2]): > 6.30

Cn1cc2cc(-n3nc(NC[C@@H]4CCCNC4)cc3-c3ccc(C#N)c(F)c3)ccc2n1 (single isomer, unassigned) [Example 9a]
pIC50 (LSD1): 5.00 to 6.00
pIC50 (MV4;11 cells; [1]): > 6.30

(S)-4-(3-(3-aminopiperidin-1-yl)-1-(p-tolyl)-1H-pyrazol-5-yl)-2-fluorobenzonitrile/(S)-4-(5-(3-aminopiperidin-1-yl)-1-(p-tolyl)-1H-pyrazol-3-yl)-2-fluorobenzonitrile [Example 39]
pIC50 (LSD1): > 6.30
pIC50 (MV4;11 cells; [3]): 5.00 to 6.00

COc1ccc(-n2nc(NC[C@@H]3CC[C@H](N)C3)cc2-c2ccc(C#N)c(F)c2)cc1 (single isomer, unassigned) [Example 4b]
pIC50 (LSD1): > 6.30
pIC50 (MV4;11 cells; [1]): 6.00 to 6.30

N#Cc1ccc(-c2cc(NC[C@H]3CCC[C@H](N)C3)nn2-c2ccc3c(cnn3-c3ccccc3)c2)cc1F [Example 15, 4-(3-((((1S,3S)-3-aminocyclohexyl)methyl)amino)-1-(1-phenyl-1H-indazol-5-yl)-1H-pyrazol-5-yl)-2-fluorobenzonitrile]
pIC50 (LSD1): > 6.30
pIC50 (MV4;11 cells; [1]): > 6.30
pIC50 (MV4;11 cells; [2]): > 6.30

COc1ccc(-n2nc(NC[C@@H]3CCC[C@@H](N)C3)cc2-c2ccc(C#N)c(F)c2)cc1 [Example 11RR, 4-(3-((((1R,3R)-3-aminocyclohexyl)methyl)amino)-1-(4-methoxyphenyl)-1H-pyrazol-5-yl)-2-fluorobenzonitrile]
pIC50 (LSD1): 6.00 to 6.30
pIC50 (MV4;11 cells; [1]): 5.00 to 6.00

N#Cc1ccc(-c2cc(NC[C@@H]3CCC[C@@H](N)C3)nn2-c2ccc3c(cnn3-c3ccncc3)c2)cc1F [Example 76, 4-(3-((((1R,3R)-3-aminocyclohexyl)methyl)amino)-1-(1-(pyridin-4-yl)-1H-indazol-5-yl)-1H-pyrazol-5-yl)-2-fluorobenzonitrile]
pIC50 (LSD1): > 6.30
pIC50 (MV4;11 cells; [1]): 6.00 to 6.30
pIC50 (MV4;11 cells; [2]): > 6.30

COc1ccc(-n2nc(NC[C@H]3CCC[C@@H](N)C3)cc2-c2ccc(C#N)c(F)c2)cc1 (racemic) [Example 5, rac-4-(3-((((15,3R)-3-aminocyclohexyl)methyl)amino)-1-(4-methoxyphenyl)-1H-pyrazol-5-yl)-2-fluorobenzonitrile]
pIC50 (LSD1): > 6.30
pIC50 (MV4;11 cells; [1]): > 6.30

N#Cc1ccc(-c2cc(NCC3CCCNCC3)nn2-c2ccc(N3CCCC3)cc2)cc1F (stereo not drawn) [Example 24, 4-(3-((azepan-4-ylmethyl)amino)-1-(4-(pyrrolidin-1-yl)phenyl)-1H-pyrazol-5-yl)-2-fluorobenzonitrile]
pIC50 (LSD1): > 6.30
pIC50 (MV4;11 cells; [1]): > 6.30
pIC50 (MV4;11 cells; [2]): > 6.30

4-(3-(4-aminopiperidin-1-yl)-1-(p-tolyl)-1H-pyrazol-5-yl)-2-fluorobenzonitrile/4-(5-(4-aminopiperidin-1-yl)-1-(p-tolyl)-1H-pyrazol-3-yl)-2-fluorobenzonitrile [Example 34]
pIC50 (LSD1): > 6.30
pIC50 (MV4;11 cells; [3]): 5.00 to 6.00

Cn1cc2ccc(-n3nc(NC[C@H]4CCC[C@H](N)C4)cc3-c3ccc(C#N)c(F)c3)cc2n1 [Example 67, 4-(3-((((1S,3S)-3-aminocyclohexyl)methyl)amino)-1-(2-methyl-2H-indazol-6-yl)-1H-pyrazol-5-yl)-2-fluorobenzonitrile]
pIC50 (LSD1): 6.00 to 6.30
pIC50 (MV4;11 cells; [1]): > 6.30
pIC50 (MV4;11 cells; [2]): > 6.30
